# Assays:
# Assay type in all cases: cell-based, human
# [1] = tested on: annexin A11 protein; assay: siRNA knockdown of annexin A11, immunoblot analysis in 2008 cells; details: for annexin A11 protein expression (immunoblot): siRNA 40 nM, compared with strong expression in -Ctr and Wt cells
# Procedure: (§1) (A and B) Effect of silencing of annexin A11 using different siRNA. 2008 cells were treated with one (A1 or A2 or A3) or a combination (A1-3) of three stealth RNA against annexin A11 or nonspecific sequence (-Ctr) at the concentration of 40 nM or without treatment (Wt) for 3 days. Immunoblot analysis (A) and real-time PCR (B) were performed to confirm the suppression of annexin A11 mRNA and protein expressions in the cells. β-Actin was taken as an additional control for equal sampling in immunoblot analysis (A). The relative mRNA expression level of each sample was normalized to GAPDH expression and compared with -Ctr sample. *P<0.05 (B). (C) Dose-dependent silencing of annexin A11 by siRNA. 2008 cells were treated with RNAi (A1) at the indicated concentrations of 40, 20, 10, or 5 nM or -Ctr at the concentration of 40 nM or without treatment (Wt) for 3 days. Immunoblot analysis (C) was performed to check the annexin A11 expression levels in the cells. β-Actin was taken as an additional control for equal sampling. (D) Duration of silencing of annexin A11 using siRNA. 2008 or HEY cells were treated with RNAi (A1) or -Ctr at the concentration of 40 nM. Immunoblot analysis was performed to analyze the annexin A11 expression levels in these cells.
# All stealth RNA interference (RNAi) sequences were purchased from Invitrogen. The three stealth RNAi that targeted different annexin A11 sequences were as follows: A1, […]; A2, […]; and A3, […]. The stealth RNAi negative control duplex (medium GC) was used as a negative control. Transfection of annexin A11-specific siRNA and the negative control was performed using Lipofectamine 2000 (Invitrogen). The optimized dose and duration of RNAi silencing were experimentally determined. Briefly, cancer cells were seeded the day before siRNA transfection in either six-well plates or T25 flasks and were 30% to 50% confluent at the time of transfection. Stealth RNAi and Lipofectamine were diluted in Opti-MEM I Medium (Invitrogen), and 40 nM of the siRNA duplex was used in each transfection mixture. 2008 or HEY cells were transfected with one annexin A11-specific siRNA (A1 or A2 or A3) or a combination of three different siRNA at the equal amount (A1-3) or negative control for 2 to 3 days and were then harvested for the downstream experiments.
# The denatured samples were electrophoresed on 4% to 15% gradient SDS-PAGE gels (Bio-Rad), electroblotted on nitrocellulose membranes (Bio-Rad), and probed with the respective antibodies against different targets. Both anti-annexin A11 (1:10,000) and anti-annexin A5 (1:2000) monoclonal antibodies were purchased from BD Biosciences (San Jose, Calif.). Rabbit anti-human HMOX1 polyclonal antibody (1:500) and mouse polyclonal anti-LY6D (1:500) were purchased from GenWay Biotech (San Diego, Calif.) and Novus Biologicals (Littleton, Colo.), respectively. The bound antibodies were visualized with horseradish peroxidase-conjugated secondary antibodies and enhanced chemiluminescence (Amersham, Pittsburgh, Pa.). Actin in the corresponding cell lysates was used as an additional control to show equal loading.
# [2] = tested on: annexin A11 mRNA; assay: siRNA knockdown of annexin A11, real-time PCR of mRNA in 2008 cells; details: siRNA 40 nM, 3 days, compared with negative control cells (-Ctr), P<0.05
# Procedure: as §1
# All stealth RNA interference (RNAi) sequences were purchased from Invitrogen. The three stealth RNAi that targeted different annexin A11 sequences were as follows: A1, […]; A2, […]; and A3, […]. The stealth RNAi negative control duplex (medium GC) was used as a negative control. […] The optimized dose and duration of RNAi silencing were experimentally determined. […]
# (Invitrogen) according to the manufacturer's instructions. […] An experiment consisted of triplicate amplification reactions for each gene product being analyzed. […] The cycle threshold number (CT) was determined for each PCR using iQ5 Real-time PCR Detection System (Bio-Rad). […] Results are expressed as relative abundance of a specific mRNA between control and experimental sample (fold change, mean±SD).
# [3] = tested on: 2008 cells; assay: Cell proliferation assay (CCK-8) after annexin A11 siRNA, 2008 cells; details: siRNA 40 nM 3 days, compared with negative control transfectants, P<0.05
# Procedure: (§2) (A and B) Cell proliferation assay. 2008 (A) or HEY (B) cells were treated with RNAi (A1) or -Ctr at the concentration of 40 nM for 3 days, respectively, and then plated at 3000 viable cells per well into 96-well plates. Every 24 hours, one plate was subjected to assay by CCK-8 kit. The data in each time point are averaged values from eight replicates (P<0.05). (C) Colony formation assay. 2008 cells were treated in the same way as above for 3 days and then plated at 3000 viable cells per well into six-well plates. Six days after plating, cells were fixed with methanol and stained with 0.1% crystal violet and colonies were counted. The experiment was performed in six replicates (P<0.01). (D) Cell cytotoxicity assay. 2008 cells were treated in same way as above for 3 days and then plated at 3000 viable cells per well into 96-well plates. […]
# (§3) Cell Counting Kit-8 (CCK-8; Dojindo, Gaithersburg, Md.) was used in cell proliferation assay. […] Cells were then collected by trypsinization, counted by using a hemacytometer with trypan blue dye, and plated at 3000 viable cells per well into 96-well tissue culture plates in a final volume of 100 μl. […] The absorbance at 450 nm was measured with a microplate reader (EL 312e; Biotek Instruments, Winooski, Vt.). […]
# [4] = tested on: annexin A11 protein; assay: siRNA knockdown of annexin A11, immunoblot analysis in HEY cells; details: after 2 days of siRNA transfection at 40 nM
# Procedure: as §1, with “Immunoblot analysis was performed to analyze the annexin A11 expression levels in these cells.” left out
# All stealth RNA interference (RNAi) sequences were purchased from Invitrogen. […] The optimized dose and duration of RNAi silencing were experimentally determined. […]
# [5] = tested on: HEY cells; assay: Cell proliferation assay (CCK-8) after annexin A11 siRNA, HEY cells; details: siRNA 40 nM 3 days, compared with negative control transfectants, P<0.05
# Procedure: as §2, §3
# [6] = tested on: 2008 cells; assay: Cell colony formation assay after annexin A11 siRNA, 2008 cells; details: siRNA 40 nM 3 days, colonies counted six days after plating, P<0.01
# Procedure: as §2
# 2008 and HEY cells were cultured in T25 flasks and transfected with A1 or negative control for 3 days. Cells were then collected, counted, and plated at 3000 viable cells per well into six-well plates. Six days after plating, cells were fixed with methanol and stained with 0.1% crystal violet, and colonies were counted under the light microscope. […]
Substance,annexin A11 protein expression (immunoblot) ([1]; 3 days),down-regulation in annexin A11 mRNA expression levels [2],"silencing effect on annexin A11 expression by concentration (immunoblot) ([1]; 5 to 40 nM, 3 days)",duration of silencing of annexin A11 protein expression ([1]; after 3 days of siRNA transfection at 40 nM),decrease in rate of proliferation [3],duration of silencing of annexin A11 protein expression [4],decrease in rate of proliferation [5],colony formation ability [6]
"A3: stealth RNAi (Invitrogen) targeting annexin A11, GGGAUUACCGGAAGAUUCUGCUGAA (chemistry not given here)",barely detectable,three-fold to four-fold,–,–,–,–,–,–
"A1: stealth RNAi (Invitrogen) targeting annexin A11, GGCCGUGGUGAAAUGUCUCAAGAAU (chemistry not given here)",barely detectable,three-fold to four-fold,dose-dependent silencing effect,≥ 10 days,40%,≥ 7 days,34%,greatly damaged
"A2: stealth RNAi (Invitrogen) targeting annexin A11, CCUCCUGGACAUCAGAUCAGAGUAU (chemistry not given here)",barely detectable,three-fold to four-fold,–,–,–,–,–,–

# — US20120004289A1, “ANNEXIN A11 AND ASSOCIATED GENES AS BIOMARKERS FOR CANCER” (The Johns Hopkins University, priority 2009, published 2012)
